Each structure is given as a SMILES string.

As for `COCCc1cccc(Nc2nc3ccccc3[n+]([O-])n2)c1` [Compound 49, N-[3-(2-Methoxyethyl)phenyl]-1,2,4-benzotriazin-3-amine 1-oxide], the melting point was 122 to 124 °C. `O=C(O)Cc1ccc(Nc2nc3ccccc3[n+]([O-])n2)cc1` [Compound 52, {4-[(1-Oxido-1,2,4-benzotriazin-3-yl)amino]phenyl}acetic acid]: the melting point lay within 243 to 245 °C. The compound `COCCNC(=O)Cc1ccc(Nc2nc3ccccc3[n+]([O-])n2)cc1` [Compound 53, 2-{4-[(1-Oxido-1,2,4-benzotriazin-3-yl)amino]phenyl}-N-(2-methoxyethyl)acetamide] yielded a melting point of 216 to 218 °C. Regarding `CN(C)CCNC(=O)Cc1ccc(Nc2nc3ccccc3[n+]([O-])n2)cc1` [Compound 54, N-[2-(Dimethylamino)ethyl]-2-{4-[(1-oxido-1,2,4-benzotriazin-3-yl)amino]phenyl}acetamide], the melting point fell in the range of 225 to 226 °C.

In turn, `[O-][n+]1nc(-c2ccccc2)nc2ccccc21` [Compound 57, 3-Phenyl-1,2,4-benzotriazine 1-oxide] registered a melting point of 125 to 127 °C. To `COc1ccc(-c2nc3ccccc3[n+]([O-])n2)cc1` [Compound 58, 3-(4-Methoxyphenyl)-1,2,4-benzotriazine 1-oxide] belongs 168 to 170 °C; to `C=Cc1nc2ccccc2[n+]([O-])n1` [Compound 59, 3-Vinyl-1,2,4-benzotriazine 1-oxide], 85 to 86 °C; to `C=CCc1nc2ccccc2[n+]([O-])n1` [Compound 60, 3-Allyl-1,2,4-benzotriazine 1-oxide], 57 to 58 °C. As for `[O-][n+]1nc(CC2CO2)nc2ccccc21` (stereo not shown) [Compound 62, 3-(2-Oxiranylmethyl)-1,2,4-benzotriazine 1-oxide], the figure is 105 to 107 °C. `COCCc1nc2ccccc2[n+]([O-])n1` [Compound 63, 3-(2-Methoxyethyl)-1,2,4-benzotriazine 1-oxide] registered a melting point of 56 to 58 °C. Consider `[O-][n+]1nc(CCCO)nc2ccccc21` [Compound 66, 3-(3-Hydroxypropyl)-1,2,4-benzotriazine 1-oxid], for which the melting point lay in the range of 99 to 100 °C. In the case of `Cc1ccc2c(c1)nc(Cl)n[n+]2[O-]` [Compound 73, 3-Chloro-6-methyl-1,2,4-benzotriazine 1-oxide], the melting point fell in the range of 156 to 158 °C. For the compound `Cc1ccc2c(c1)nc(NCCO)n[n+]2[O-]` [Compound 74, 2-[(6-Methyl-1-oxido-1,2,4-benzotriazin-3-yl)amino]ethanol], the melting point lay in the range of 198 to 202 °C. Turning to `Cc1ccc2c(c1)nc(NCCN(C)C)n[n+]2[O-]` [Compound 76, N^1,N^1-Dimethyl-N^2-(6-methyl-1-oxido-1,2,4-benzotriazin-3-yl)-1,2-ethanediamine], the melting point is 143 to 145 °C. Turning to `Cc1ccc2c(c1)nc(NCCN1C(C)CCCC1C)n[n+]2[O-]` (stereo not shown) [Compound 78, N-[2-(2,6-Dimethyl-1-piperidinyl)ethyl]-6-methyl-1,2,4-benzotriazin-3-amine 1-oxide], the melting point fell in the range of 162 to 165 °C.

The compound `C=CCc1nc2cc(C)ccc2[n+]([O-])n1` [Compound 80, 3-Allyl-6-methyl-1,2,4-benzotriazine 1-oxide] displayed a melting point of 65 to 67 °C. `Cc1ccc2c(c1)nc(CCO)n[n+]2[O-]` [Compound 81, 2-(6-Methyl-1-oxido-1,2,4-benzotriazin-3-yl)ethanol]: the melting point was in the range of 121 to 123 °C. The compound `COc1ccc2c(c1)nc(Cl)n[n+]2[O-]` [Compound 83, 3-Chloro-6-methoxy-1,2,4-benzotriazine 1-oxide] displayed a melting point of 196 to 199 °C. The compound `COc1ccc2c(c1)nc(NCCN1CCCCC1)n[n+]2[O-]` [Compound 85, 6-Methoxy-N-[2-(1-piperidinyl)ethyl]-1,2,4-benzotriazin-3-amine 1-oxide] registered a melting point of 133 to 135 °C. In turn, `COc1ccc2c(c1)nc(NCCN1CCOCC1)n[n+]2[O-]` [Compound 86, 6-Methoxy-N-[2-(4-morpholinyl)ethyl]-1,2,4-benzotriazin-3-amine 1-oxide] gave a melting point of 186 to 188 °C.

For `Cc1ccc2nc(NCCN3CCCCC3)n[n+]([O-])c2c1` [Compound 89, 7-Methyl-N-[2-(1-piperidinyl)ethyl]-1,2,4-benzotriazin-3-amine 1-oxide], the melting point is 166 to 168 °C.

`COc1ccc2nc(NCCN3CCCCC3)n[n+]([O-])c2c1` [Compound 93, 7-Methoxy-N-[2-(1-piperidinyl)ethyl]-1,2,4-benzotriazin-3-amine 1-oxide] came in with a melting point of 162 to 165 °C. In turn, `COc1ccc2nc(NCCN3CCOCC3)n[n+]([O-])c2c1` [Compound 94, 7-Methoxy-N-[2-(4-morpholinyl)ethyl]-1,2,4-benzotriazin-3-amine 1-oxide] registered a melting point of 208 to 212 °C. The compound `COCCOc1ccc2nc(Cl)n[n+]([O-])c2c1` [Compound 96, 3-Chloro-7-(2-methoxyethoxy)-1,2,4-benzotriazine 1-oxide] yielded a melting point of 121 to 125 °C. For `CCc1nc2ccc(OCCOC)cc2[n+]([O-])n1` [Compound 97, 3-Ethyl-7-(2-methoxyethoxy)-1,2,4-benzotriazine 1-oxid], the melting point lay in the range of 95 to 97 °C. Compound `[O-][n+]1nc(Cl)nc2ccc(OCCN3CCOCC3)cc21` [Compound 98, 3-Chloro-7-[2-(4-morpholinyl)ethoxy]-1,2,4-benzotriazine 1-oxide] displayed a melting point of 144 to 146 °C.

Compound `CCc1nc2ccc(OCCN3CCOCC3)cc2[n+]([O-])n1` [Compound 99, 3-Ethyl-7-[2-(4-morpholinyl)ethoxy]-1,2,4-benzotriazine 1-oxide] registered a melting point of 99 to 101 °C. Take `Cc1cccc2nc(Cl)n[n+]([O-])c12` [Compound 100, 3-Chloro-8-methyl-1,2,4-benzotriazine 1-oxide]: the melting point lay within 170 to 173 °C. In turn, `Cc1cccc2nc(NCCN(C)C)n[n+]([O-])c12` [Compound 101, N^1,N^1-Dimethyl-N^2-(8-methyl-1-oxido-1,2,4-benzotriazin-3-yl)-1,2-ethanediamine] had a melting point of 121 to 123 °C. As for `Cc1cc2nc(Cl)n[n+]([O-])c2cc1C` [Compound 104, 3-Chloro-6,7-dimethyl-1-oxido-1,2,4-benzotriazine], the figure is 148 to 149 °C; as for `Cc1cc2nc(NCCNC(=O)OC(C)(C)C)n[n+]([O-])c2cc1C` [Compound 105, tert-Butyl 2-[(6,7-dimethyl-1-oxido-1,2,4-benzotriazin-3-yl)amino]ethylcarbamate], 226 to 228 °C; as for `Cc1cc2nc(NCCN(C)C)n[n+]([O-])c2cc1C` [Compound 106, N^1-(6,7-Dimethyl-1-oxido-1,2,4-benzotriazin-3-yl)-N^2,N^2-dimethyl-1,2-ethanediamine], 175 to 178 °C.

As for `Cc1cc(C)c2c(c1)nc(Cl)n[n+]2[O-]` [Compound 108, 3-Chloro-6,8-dimethyl-1,2,4-benzotriazine 1-oxide], the melting point was 120 to 122 °C. To `Cc1cc(C)c2c(c1)nc(NCCN(C)C)n[n+]2[O-]` [Compound 109, N^1-(6,8-Dimethyl-1-oxido-1,2,4-benzotriazin-3-yl)-N^2,N^2-dimethyl-1,2-ethanediamine] belongs 176 to 179 °C; to `Cc1cc(C)c2c(c1)nc(NCCN1CCCCC1)n[n+]2[O-]` [Compound 110, 6,8-Dimethyl-N-[2-(1-piperidinyl)ethyl]-1,2,4-benzotriazin-3-amine 1-oxide], 177 to 178 °C. On to `COc1cc2nc(N)n[n+]([O-])c2cc1C` [Compound 112, 6-Methoxy-7-methyl-1,2,4-benzotriazin-3-amine 1-oxide], for which the melting point lay in the range of 289 to 292 °C.

Regarding `COc1cc2nc(Cl)n[n+]([O-])c2cc1C` [Compound 113, 3-Chloro-6-methoxy-7-methyl-1,2,4-benzotriazine 1-oxide], the melting point lay in the range of 180 to 182 °C.

The compound `COc1cc2nc(NCCN(C)C)n[n+]([O-])c2cc1C` [Compound 114, N^1-(6-Methoxy-7-methyl-1-oxido-1,2,4-benzotriazin-3-yl)-N^2,N^2-dimethyl-1,2-ethanediamine] showed a melting point of 167 to 169 °C. The compound `COc1cc2c(cc1C)nc(Cl)n[n+]2[O-]` [Compound 117, 3-Chloro-7-methoxy-6-methyl-1,2,4-benzotriazine 1-oxide] came in with a melting point of 200 to 202 °C. Compound `COc1cc2c(cc1C)nc(NCCN(C)C)n[n+]2[O-]` [Compound 118, N^1,N^1-Dimethyl-N^2-(7-methoxy-6-methyl-1-oxido-1,2,4-benzotriazin-3-yl)-1,2-ethanediamine] returned a melting point of 182 to 184 °C. Consider `COc1cc2c(cc1C)nc(NCCN1CCCCC1)n[n+]2[O-]` [Compound 119, 7-Methoxy-6-methyl-N-[2-(1-piperidinyl)ethyl]-1,2,4-benzotriazin-3-amine 1-oxide], for which the melting point was 195 to 197 °C.

`O=C(NCCOCCNc1nc2ccccc2[n+]([O-])n1)c1cccc2cc3ccccc3nc12` [Compound 121, N-(2-{2-[(1-Oxido-1,2,4-benzotriazin-3-yl)amino]ethoxy}ethyl)-4-acridinecarboxamide] showed a melting point of 178 to 182 °C. For `COCCNc1nc2ccccc2[n+]([O-])c1C#N` [Compound 123, 3-[(2-Methoxyethyl)amino]-2-quinoxalinecarbonitrile 1-oxide], the melting point was 124 to 126 °C.

`Nc1nc2ccccc2n[n+]1[O-]` [Compound 126, 1,2,4-Benzotriazin-3-amine 2-oxide] registered a melting point of 175 to 180 °C. To `[O-][n+]1nc(Cl)nc2cc(Cl)ccc21` [Compound 133, 3,6-Dichloro-1,2,4-benzotriazine 1-Oxide] belongs 149 to 151 °C; to `CCN(CC)CCNc1nc2cc(Cl)ccc2[n+]([O-])n1` [Compound 134, N^1-(6-Chloro-1-oxido-1,2,4-benzotriazin-3-yl)-N^2,N^2-diethyl-1,2-ethanediamine], 128 to 130 °C.

These data come from patent US20040192686A1, “Benzoazine mono-N-oxides and benzoazine 1,4 dioxides and compositions therefrom for the therapeutic use in cancer treatments” (Auckland Uniservices Limited, priority 2003, published 2004).
